The target of assay [1] is T1, C-C chemokine receptor-like 2 (Homo sapiens) (UniProt O00421).
T1 sequence (whole entry): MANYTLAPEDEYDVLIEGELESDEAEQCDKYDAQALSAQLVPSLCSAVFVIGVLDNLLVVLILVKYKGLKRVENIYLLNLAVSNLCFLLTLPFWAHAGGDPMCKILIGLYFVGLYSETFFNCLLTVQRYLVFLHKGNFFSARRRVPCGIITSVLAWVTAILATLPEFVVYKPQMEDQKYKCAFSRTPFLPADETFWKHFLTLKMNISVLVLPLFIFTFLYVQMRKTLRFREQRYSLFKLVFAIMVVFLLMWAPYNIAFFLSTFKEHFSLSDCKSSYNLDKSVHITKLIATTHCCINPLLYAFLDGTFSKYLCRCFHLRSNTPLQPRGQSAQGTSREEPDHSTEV
Briefly: Binding affinity to CCR11 (unknown origin) at 10 uM by radioligand displacement assay.

Assay [2] has as its target Atypical chemokine receptor 3 (Homo sapiens) (UniProt P25106). In words: Antagonist activity at CXCR7 (unknown origin) assessed as inhibition of calcium flux at 10 uM. The assay is classed as functional.
Assay [3] concerns Cytomegalovirus. In words: Antagonist activity at CMV US28 assessed as inhibition of calcium flux at 10 uM.
For a further assay, the target named is Cytochrome P450 2C9 (Homo sapiens, UniProt P11712). In words: Competitive inhibition of CYP2C9 (unknown origin). The assay is classed as ADME.
Sequence of Cytochrome P450 2C9 (P11712 whole entry): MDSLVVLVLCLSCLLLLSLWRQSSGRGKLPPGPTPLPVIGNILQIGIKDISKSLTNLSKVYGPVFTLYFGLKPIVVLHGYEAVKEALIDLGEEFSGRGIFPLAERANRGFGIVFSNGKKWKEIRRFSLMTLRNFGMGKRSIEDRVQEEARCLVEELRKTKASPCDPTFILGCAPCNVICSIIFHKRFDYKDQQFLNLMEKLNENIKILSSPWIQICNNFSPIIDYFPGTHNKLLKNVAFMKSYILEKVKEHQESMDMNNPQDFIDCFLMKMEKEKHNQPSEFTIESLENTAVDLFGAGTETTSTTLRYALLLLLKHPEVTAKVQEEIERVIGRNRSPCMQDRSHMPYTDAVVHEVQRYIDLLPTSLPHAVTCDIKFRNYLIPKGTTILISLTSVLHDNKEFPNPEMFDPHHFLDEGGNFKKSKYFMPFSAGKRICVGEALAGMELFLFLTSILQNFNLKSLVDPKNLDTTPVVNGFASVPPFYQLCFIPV
The target in assay [4] is C-X-C chemokine receptor type 6 (Homo sapiens) (UniProt O00574). Briefly: Antagonist activity at CXCR6 (unknown origin) assessed as inhibition of chemotaxis at 10 uM.
Sequence of C-X-C chemokine receptor type 6 (Homo sapiens) (O00574 whole entry, looked up): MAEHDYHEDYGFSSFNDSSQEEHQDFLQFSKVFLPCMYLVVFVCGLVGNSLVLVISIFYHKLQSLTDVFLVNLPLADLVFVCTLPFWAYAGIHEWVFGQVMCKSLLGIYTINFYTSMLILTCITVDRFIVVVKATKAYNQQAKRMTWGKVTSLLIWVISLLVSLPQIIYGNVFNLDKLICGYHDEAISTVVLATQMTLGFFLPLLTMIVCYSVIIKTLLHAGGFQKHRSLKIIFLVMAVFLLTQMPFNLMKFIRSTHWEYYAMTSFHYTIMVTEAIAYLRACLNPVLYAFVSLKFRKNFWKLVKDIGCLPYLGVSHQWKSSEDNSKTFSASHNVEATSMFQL
Assay [5] addresses T2, C-C chemokine receptor type 6 (Homo sapiens) (UniProt P51684).
T2 sequence (whole entry): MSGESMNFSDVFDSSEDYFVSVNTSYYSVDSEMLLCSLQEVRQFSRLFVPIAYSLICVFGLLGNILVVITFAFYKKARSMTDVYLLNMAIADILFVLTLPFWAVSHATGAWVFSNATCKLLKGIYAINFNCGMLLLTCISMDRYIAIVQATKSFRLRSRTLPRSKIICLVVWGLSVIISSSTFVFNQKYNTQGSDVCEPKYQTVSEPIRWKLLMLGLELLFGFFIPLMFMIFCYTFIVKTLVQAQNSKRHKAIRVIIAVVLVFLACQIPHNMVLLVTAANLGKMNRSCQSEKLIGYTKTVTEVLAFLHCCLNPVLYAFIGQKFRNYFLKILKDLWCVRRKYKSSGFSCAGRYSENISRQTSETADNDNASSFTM
In words: Antagonist activity at CCR6 (unknown origin) assessed as inhibition of chemotaxis at 10 uM.

Assay [6] has as its system Cytomegalovirus. Briefly: Binding affinity to CMV US28 at 10 uM by radioligand displacement assay.
The target in assay [7] is C-X-C chemokine receptor type 4 (Homo sapiens) (UniProt P61073). Briefly: Antagonist activity at CXCR4 (unknown origin) assessed as inhibition of calcium flux at 10 uM. The assay is classed as functional.
Sequence of C-X-C chemokine receptor type 4 (Homo sapiens) (P61073 whole entry): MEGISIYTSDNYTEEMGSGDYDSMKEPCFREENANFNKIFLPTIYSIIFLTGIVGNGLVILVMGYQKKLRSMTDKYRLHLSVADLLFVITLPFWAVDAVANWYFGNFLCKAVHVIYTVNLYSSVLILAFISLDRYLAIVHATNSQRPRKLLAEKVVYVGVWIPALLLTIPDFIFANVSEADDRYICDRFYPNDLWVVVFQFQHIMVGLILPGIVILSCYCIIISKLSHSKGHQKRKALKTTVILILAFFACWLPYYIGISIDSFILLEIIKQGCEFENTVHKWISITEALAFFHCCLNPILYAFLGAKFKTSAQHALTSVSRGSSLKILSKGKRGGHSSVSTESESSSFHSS
Assay [8] has as its target T3, C-C chemokine receptor type 4 (Homo sapiens) (UniProt P51679).
T3 sequence (whole entry): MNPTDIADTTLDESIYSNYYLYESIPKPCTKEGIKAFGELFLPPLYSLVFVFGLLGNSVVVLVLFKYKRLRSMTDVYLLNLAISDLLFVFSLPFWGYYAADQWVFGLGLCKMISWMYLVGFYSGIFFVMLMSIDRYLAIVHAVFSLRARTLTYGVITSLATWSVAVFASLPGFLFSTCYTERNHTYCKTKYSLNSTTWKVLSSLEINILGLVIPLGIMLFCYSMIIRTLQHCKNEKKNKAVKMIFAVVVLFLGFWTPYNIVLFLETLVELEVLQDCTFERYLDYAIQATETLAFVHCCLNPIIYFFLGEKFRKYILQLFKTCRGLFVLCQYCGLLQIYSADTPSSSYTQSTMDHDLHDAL
In words: Antagonist activity at CCR4 (unknown origin) assessed as inhibition of chemotaxis at 10 uM.

The target in assay [9] is T4, C-X-C chemokine receptor type 1 (Homo sapiens) (UniProt P25024).
T4 sequence (whole entry): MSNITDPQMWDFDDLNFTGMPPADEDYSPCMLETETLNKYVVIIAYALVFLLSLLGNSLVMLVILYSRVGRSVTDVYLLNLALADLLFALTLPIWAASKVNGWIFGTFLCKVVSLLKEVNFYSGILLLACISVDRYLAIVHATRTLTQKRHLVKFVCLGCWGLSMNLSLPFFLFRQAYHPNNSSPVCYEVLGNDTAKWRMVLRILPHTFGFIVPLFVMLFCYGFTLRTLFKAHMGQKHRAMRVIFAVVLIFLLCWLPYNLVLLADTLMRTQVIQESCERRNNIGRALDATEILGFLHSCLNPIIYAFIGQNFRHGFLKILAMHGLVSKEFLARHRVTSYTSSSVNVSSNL
Briefly: Antagonist activity at CXCR1 (unknown origin) assessed as inhibition of chemotaxis at 10 uM.

In assay [10] the target is T5, C-X-C chemokine receptor type 5 (Homo sapiens) (UniProt P32302).
T5 sequence (whole entry): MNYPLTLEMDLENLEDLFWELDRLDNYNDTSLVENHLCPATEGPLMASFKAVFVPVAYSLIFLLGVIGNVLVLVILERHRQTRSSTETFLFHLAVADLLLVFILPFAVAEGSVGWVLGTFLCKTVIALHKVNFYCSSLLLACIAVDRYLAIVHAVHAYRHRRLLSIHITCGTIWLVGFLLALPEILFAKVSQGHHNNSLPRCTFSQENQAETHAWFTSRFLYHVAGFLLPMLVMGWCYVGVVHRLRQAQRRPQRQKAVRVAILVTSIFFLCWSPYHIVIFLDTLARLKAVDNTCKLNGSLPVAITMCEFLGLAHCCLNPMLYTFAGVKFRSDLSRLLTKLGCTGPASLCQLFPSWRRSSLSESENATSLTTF
Briefly: Antagonist activity at CXCR5 (unknown origin) assessed as inhibition of calcium flux at 10 uM. The assay is classed as functional.

In assay [11] the target is T6, C-X-C chemokine receptor type 3 (Homo sapiens) (UniProt P49682).
T6 sequence (whole entry): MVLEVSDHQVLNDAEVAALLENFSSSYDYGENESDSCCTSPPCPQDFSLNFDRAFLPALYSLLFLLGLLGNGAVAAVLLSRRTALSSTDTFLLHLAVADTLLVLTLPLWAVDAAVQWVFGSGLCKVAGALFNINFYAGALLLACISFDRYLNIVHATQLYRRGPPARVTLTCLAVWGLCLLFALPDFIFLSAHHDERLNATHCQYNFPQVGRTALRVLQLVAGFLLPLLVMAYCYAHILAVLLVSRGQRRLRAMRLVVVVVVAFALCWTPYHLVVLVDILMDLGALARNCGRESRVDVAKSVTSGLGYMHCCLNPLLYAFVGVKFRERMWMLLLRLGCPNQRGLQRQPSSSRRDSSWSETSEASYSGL
Briefly: Antagonist activity at CXCR3 (unknown origin) assessed as inhibition of chemotaxis at 10 uM.

SMILES strings stand for the structures. pIC50: −log10 of the molar value. The source made the active and inactive calls. The rule behind the calls is not given here.

Sequence of Atypical chemokine receptor 3 (Homo sapiens) (P25106 whole entry): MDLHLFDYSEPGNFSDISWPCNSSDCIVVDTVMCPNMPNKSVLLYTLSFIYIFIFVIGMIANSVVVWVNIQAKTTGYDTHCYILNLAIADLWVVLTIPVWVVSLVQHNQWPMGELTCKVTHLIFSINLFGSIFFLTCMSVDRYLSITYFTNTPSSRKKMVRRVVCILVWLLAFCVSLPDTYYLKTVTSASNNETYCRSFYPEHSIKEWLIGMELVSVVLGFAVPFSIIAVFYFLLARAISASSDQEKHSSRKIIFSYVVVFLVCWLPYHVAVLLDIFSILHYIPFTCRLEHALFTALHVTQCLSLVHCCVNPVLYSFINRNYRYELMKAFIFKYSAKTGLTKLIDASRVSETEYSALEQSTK

As for `COc1cc(N2CCN(C(=O)Cn3nc(C(F)(F)F)c(Cl)c3C)CC2)ccc1Cl`, the outcome (in [1]; with Cytomegalovirus [6]) was inactive. Also, the inhibition result (in [2]; in the assay on Cytomegalovirus [3]; in assay [4]; in [5]; in [7]; in [8]) was “inactive” each time. The inhibition result in assay [9], in assay [10] and in [11] was “inactive” in each case. Further, the pIC50 at Cytochrome P450 2C9 is less than 5.00.

Values taken from ChEMBL document CHEMBL2321873, “1-(4-Phenylpiperazin-1-yl)-2-(1H-pyrazol-1-yl)ethanones as novel CCR1 antagonists” (Bioorg Med Chem Lett, 2013).
